Results on 13 molecules are retold here after PubChem BioAssay (NCI).

Among the test systems are ACHN renal; BT-549 breast; COLO 205 colon; IGROV1 ovarian; SF-268 CNS; SK-MEL-2 melanoma; SK-MEL-5 melanoma; SNB-19 CNS; MDA-MB-231 breast; SNB-75 CNS.
Holding throughout (test): NCI anticancer screen, dose series, 48 h

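Following 48 hours of exposure in 96-well plates, responses at five concentrations were used to interpolate endpoints linearly. Here, GI50 denotes the concentration required for 50% inhibition of growth. Definition used: TGI = concentration required for complete inhibition of growth.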

Turning to `COc1ccc(CNC(=O)[C@H](Cc2ccc(O)cn2)NC(C)=O)cc1`, the TGI in the test on ACHN renal, in the test with BT-549 breast, in the test with COLO 205 colon, with IGROV1 ovarian, in the test with SF-268 CNS and with SK-MEL-2 melanoma was over 100 µM in each case. The TGI in the test on SK-MEL-5 melanoma and in the test with SNB-19 CNS was over 100 µM throughout.
Take `O=C(O)CCC(NC(=O)c1ccc(CNc2nc3ccccc3nc2C(=O)O)cc1)C(=O)O` (configuration not stated): the TGI with ACHN renal, in the test on COLO 205 colon, in the test on IGROV1 ovarian, in the test on MDA-MB-231 breast, with SF-268 CNS and with SK-MEL-2 melanoma was over 100 µM each time. In addition, the TGI in the test on SK-MEL-5 melanoma, in the test with SNB-19 CNS and with SNB-75 CNS was over 100 µM in each case.
In the case of `Nc1c(N2CCCCC2)c(=O)nc2[nH]/c(=C\c3ccccc3)c(=O)n12`, the TGI in the test with ACHN renal, in the test on COLO 205 colon, with IGROV1 ovarian, in the test with MDA-MB-231 breast, with SF-268 CNS and with SK-MEL-5 melanoma was over 100 µM each time. Further, the TGI in the test with SNB-19 CNS and in the test with SNB-75 CNS was over 100 µM in each case.
Turning to `COc1cc2c(c(OC(C)=O)c1OC(C)=O)-c1ccc(SC)c(=O)cc1C(NC(C)=O)CC2` (configuration not stated), the TGI in the test with ACHN renal was over 100 µM; with COLO 205 colon, 3.13 µM; in the test on IGROV1 ovarian, over 100 µM; with SF-268 CNS it was over 100 µM; with SK-MEL-2 melanoma, 7.07 µM; in the test with SK-MEL-5 melanoma it was 3.46 µM. For the same molecule, the TGI in the test with SNB-19 CNS is over 100 µM.
Take `Cc1ccc(C2CC(c3cccc(Nc4ccncc4)c3)=NN2c2ccccc2)cc1` (configuration not stated): the GI50 in the test on ACHN renal was 1.69 µM; with BT-549 breast, 1.81 µM; in the test on SK-MEL-5 melanoma it was 1.79 µM; in the test with SNB-75 CNS it was 1.32 µM. Also, the TGI in the test on ACHN renal is 3.05 µM; in the test on BT-549 breast, 3.37 µM; with SK-MEL-5 melanoma, 3.24 µM; in the test with SNB-75 CNS, 2.88 µM.
Regarding `CC(=O)N/C(=C\c1ccc(/C=C(\NC(C)=O)C2=NC3C(=O)c4ccccc4C(=O)C3N2)cc1)C1=NC2C(=O)c3ccccc3C(=O)C2N1` (configuration not stated), the TGI was over 100 µM in the test on ACHN renal; over 100 µM in the test with COLO 205 colon; over 100 µM in the test with IGROV1 ovarian; over 100 µM in the test with SF-268 CNS; over 100 µM in the test with SNB-19 CNS; 76.2 µM with SNB-75 CNS.
In the case of `CC(=O)N=C1N(/C=C2\C(=O)Oc3ccccc3C2=O)C(=O)/C(=C/c2ccccc2Cl)N1C`, the TGI in the test on ACHN renal, in the test with COLO 205 colon, in the test on IGROV1 ovarian, in the test with MDA-MB-231 breast, with SF-268 CNS and in the test on SK-MEL-2 melanoma was over 100 µM in each case. Also, the TGI in the test on SK-MEL-5 melanoma, in the test on SNB-19 CNS and with SNB-75 CNS was over 100 µM in each case.
Consider `CCOC(=O)NC(=S)c1ccc(O)c2ccccc12`, for which the TGI was over 100 µM in the test on ACHN renal; 95.2 µM with BT-549 breast; over 100 µM with COLO 205 colon; 49.1 µM in the test on IGROV1 ovarian; over 100 µM in the test on SF-268 CNS; over 100 µM in the test on SK-MEL-2 melanoma. In addition, the TGI with SK-MEL-5 melanoma and in the test with SNB-19 CNS was over 100 µM in each case.
Turning to `[O-][n+]1c(-c2ccccc2)c2nc3ccccc3nc2c2ccccc21`, the TGI with ACHN renal, with COLO 205 colon, with IGROV1 ovarian, in the test on SF-268 CNS, with SK-MEL-2 melanoma and with SK-MEL-5 melanoma was over 100 µM each time. In addition, the TGI in the test on SNB-19 CNS is over 100 µM; with SNB-75 CNS, 99 µM.
Turning to `CCN(CC)CCNc1ccc2nnn3c4ccccc4c(=O)c1c23`, the TGI with ACHN renal is over 100 µM; in the test on COLO 205 colon it was 16.2 µM; in the test on IGROV1 ovarian, 58.8 µM; in the test on SF-268 CNS, 19.2 µM; with SK-MEL-2 melanoma, 14 µM; with SK-MEL-5 melanoma, 10.3 µM. The TGI with SNB-19 CNS is 40.3 µM; in the test on SNB-75 CNS, 11.9 µM.
In the case of `COC(=O)c1c2c(cc3c1CC1(Cc4cc5c(cc4C1)CCC5)C3)CCC2`, the TGI in the test on ACHN renal, in the test with IGROV1 ovarian, in the test with MDA-MB-231 breast, with SF-268 CNS, in the test with SK-MEL-2 melanoma and with SK-MEL-5 melanoma was over 100 µM in each case. The TGI in the test with SNB-19 CNS and in the test with SNB-75 CNS was over 100 µM in each case.
Consider `Cc1c2c(ccc3ccccc32)c[n+]2ccccc12`, for which the TGI in the test with ACHN renal was over 100 µM; in the test with COLO 205 colon, 33.7 µM; in the test with SF-268 CNS it was 11.3 µM; with SK-MEL-2 melanoma it was 33.7 µM; with SK-MEL-5 melanoma, 16 µM; in the test on SNB-19 CNS, 7.89 µM. Further, the TGI in the test on SNB-75 CNS worked out at 8.94 µM.
Take `Cc1ccc(-c2cc(-c3c(C)nn(C)c(=O)c3N)[nH]n2)cc1`: the TGI in the test on ACHN renal, with COLO 205 colon, in the test on IGROV1 ovarian, in the test with MDA-MB-231 breast, in the test with SF-268 CNS and in the test on SK-MEL-2 melanoma was over 100 µM each time. Besides, the TGI in the test with SK-MEL-5 melanoma and in the test on SNB-19 CNS was over 100 µM in each case.
